The results in this text go back to ChEMBL document CHEMBL4828781, “Novel Heteroaromatic Carboxamide Derivatives as Plasma Kallikrein Inhibitors for Treating Diabetic Complications, Ocular Diseases and Edema-Associated Diseases” (ACS Med Chem Lett, 2021).

The target in this assay is Plasma kallikrein (Homo sapiens, UniProt P03952). Description: Inhibition of human plasma kallikrein using […] as fluorogenic substrate measured every 2 mins for 12 mins by microplate reader analysis.
Plasma kallikrein, sequence (P03952 20-390 limits assumed): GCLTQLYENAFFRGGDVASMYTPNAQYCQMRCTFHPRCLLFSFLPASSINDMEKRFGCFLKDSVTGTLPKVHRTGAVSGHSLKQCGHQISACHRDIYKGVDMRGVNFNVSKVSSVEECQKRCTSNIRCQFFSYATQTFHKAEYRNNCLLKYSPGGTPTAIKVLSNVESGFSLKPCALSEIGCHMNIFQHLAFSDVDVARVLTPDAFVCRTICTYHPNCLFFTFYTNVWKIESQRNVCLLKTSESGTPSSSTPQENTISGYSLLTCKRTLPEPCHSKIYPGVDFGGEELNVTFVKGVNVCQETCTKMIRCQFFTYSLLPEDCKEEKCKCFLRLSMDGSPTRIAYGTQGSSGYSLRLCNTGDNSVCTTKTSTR
Plasma kallikrein, sequence (P03952 391-638 limits assumed): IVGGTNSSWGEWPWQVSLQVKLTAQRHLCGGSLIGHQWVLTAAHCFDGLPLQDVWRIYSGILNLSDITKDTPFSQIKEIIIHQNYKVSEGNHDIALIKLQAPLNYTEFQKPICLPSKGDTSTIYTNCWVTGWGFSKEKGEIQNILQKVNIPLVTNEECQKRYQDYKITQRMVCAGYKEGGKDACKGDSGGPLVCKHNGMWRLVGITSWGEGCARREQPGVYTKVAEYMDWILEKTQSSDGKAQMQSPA

For `Cc1c(Cn2cnc(C(=O)N[C@@H]3CCc4c3ncn4C)c2)ccc(N2CC3CC3C2)c1C#N` (stereo partly specified), the IC50 (usually the concentration at which inhibition is half-maximal) worked out at 300 pM.
